Values after ≈ are worked out from the molar mass of the structure shown. Read-outs that look alike come from different tables or passages of the source.
How the values were obtained:
[1] = test system: S. pneumoniae UC® 9912; assay: MIC by agar dilution, S. pneumoniae UC 9912; assay type: cell-based; conditions: Streptococcus pneumoniae
Excerpt: (§1) The oxazolidinone antibacterial agents of this invention have useful activity against a variety of organisms. The in vitro activity of compounds of this invention can be assessed by standard testing procedures such as the determination of minimum inhibitory concentration (MIC) by agar dilution as described in "Methods for Dilution Antimicrobial Susceptibility Tests for Bacteria That Grow Aerobically" (MFT) published January 1983 by the National Committee for Clinical Laboratory Standards, 771 East Lancaster Avenue, Villanova, Pa. 19084, USA. The activity of selected compounds of this invention against Staphylococcus aureus and Streptococcus pneumoniae are shown in Table 1.

[2] = test system: S. aureus UC ® 9213; assay: MIC by agar dilution, S. aureus UC 9213; assay type: cell-based; conditions: Staphylococcus aureus
Excerpt: as §1

[3] = UC9912, S. pneumoniae UC 9912, in vitro, agar dilution, read-out: Minimum Inhibitory Concentration
[4] = UC9213, S. aureus UC 9213, in vitro, agar dilution, read-out: Minimum Inhibitory Concentration

Structure (SMILES) | MIC [1, 3] | MIC [2, 4] | MIC ([1]; UC9912, read-out: Minimum Inhibitory Concentration) | MIC ([2]; UC9213, read-out: Minimum Inhibitory Concentration)
CC(=O)NC[C@H]1CN(c2ccc(N3C[C@H]4CN(C(=O)COCc5ccccc5)C[C@H]4C3)c(F)c2)C(=O)O1 [Example 2, (S)-N-[[3-[3-fluoro4-[cis-3-(benzyloxyacetyl)-3,7-diazabicyclo[3.3.0]octan-7-yl]phenyl]-2-oxo-5-oxazolidinyl]methyl]acetamide] | 1 µg/mL (≈ 1.96 µM) | 8 µg/mL (≈ 15.7 µM) |  | 
CN[C@H](CC(C)C)C(=O)N[C@H]1C(=O)N[C@@H](CC(N)=O)C(=O)N[C@H]2C(=O)N[C@H]3C(=O)N[C@H](C(=O)N[C@H](C(=O)O)c4cc(O)cc(O)c4-c4cc3ccc4O)[C@H](O)c3ccc(c(Cl)c3)Oc3cc2cc(c3O[C@@H]2O[C@H](CO)[C@@H](O)[C@H](O)[C@H]2O[C@H]2C[C@](C)(N)[C@H](O)[C@H](C)O2)Oc2ccc(cc2Cl)[C@H]1O [vancomycin, reference compound] |  |  | 0.5 µg/mL (≈ 0.345 µM) | 1 µg/mL (≈ 0.69 µM)
CC(=O)NC[C@H]1CN(c2ccc(N3C[C@H]4CN(C(=O)CO)C[C@H]4C3)c(F)c2)C(=O)O1 [Example 3, (S)-N-[[3-[3-fluoro4-[cis-3-(hydroxyacetyl)-3,7-diazabicyclo[3.3.0]octan-7-yl]phenyl]-2-oxo-5-oxazolidinyl]methyl]acetamide] | < 0.5 µg/mL | 4 µg/mL (≈ 9.51 µM) |  | 
CC(=O)NC[C@H]1CN(c2ccc(N3C[C@H]4CN(C(=O)OCc5ccccc5)C[C@H]4C3)c(F)c2)C(=O)O1 [Example 1, (S)-N-[[3-[4-[cis-3-(carbobenzyloxy)-3,7-diazabicyclo[3.3.0]octan-7-yl]-3-fluorophenyl]-2-oxo-5-oxazolidinyl]methyl]acetamide] | 2 µg/mL (≈ 4.03 µM) | 4 µg/mL (≈ 8.06 µM) |  | 

— patent US6090820A, “Spirocyclic and bicyclic diazinyl and carbazinyl oxazolidinones” (Pharmacia & Upjohn Company, priority 1997, dated 2000)
